Experimental data reported in patent publication US8435949B2, “Pheromones and the luteinizing hormone for inducing proliferation of neural stem cells and neurogenesis” (Stem Cell Therapeutics Corp., priority 2004, dated 2013).
Where “and” joins values, the source holds several entries; their conditions need not be identical. Equal values may be shown once.

B1: prolactin: additional agent given in combination with LH or hCG (protein, UniProt P01236 29-227, looked up)
Prolactin: LPICPGGAARCQVTLRDLFDRAVVLSHYIHNLSSEMFSEFDKRYTHGRGFITKAINSCHTSSLATPEDKEQAQQMNQKDFLSLIVSILRSWNEPLYHLVTEVRGMQEAPEAILSKAVEIEEQTKRLLEGMELIVSQVHPETKENEIYPVWSGLPSLQMADEESRLSAYYNLLHCLRRDSHKIDNYLKLLKCRIIHNNNC

Columns and labels:
neural stem cells = experiment: Neural stem cell culture: secondary sphere formation from dissociated primary spheres (self-renewal); assay type: cell-based, mice; details: for number of secondary spheres: EGF or EGF plus LH (30 nM), limited density, Exp. #1-#3
Procedure: Generation and differentiation of spheres from embryonic and adult forebrain were performed as described previously with minor modifications (Reynolds and Weiss, 1992; Reynolds et al., 1992). Briefly, striato-pallidum complexes were removed from mouse embryos at E14 and collected into PBS containing 0.6% glucose, penicillin (50 U/ml), and streptomycin (50 U/ml; both from Life Technologies, Gaithersburg, Md.) and then transferred into the standard culture medium composed of DMEM-F-12 (1:1), glucose (0.6%), glutamine (2 mM), sodium bicarbonate (3 mM), HEPES buffer (5 mM), insulin (25 μg/ml), transferrin (100 μg/ml), progesterone ([…]), putrescine (60 μM), and selenium chloride (30 nM) (all from Sigma, St. Louis, Mo., except glutamine from Life Technologies) For adult neural stem cell cultures, medial and lateral portions of the lateral ventricle subependyma from the adult brain were dissected from both hemispheres, pooled together, subsequently cut into 1 mm^2 fragments, and transferred into the standard culture medium containing 1.33 mg/ml trypsin, 0:67 mg/ml hyaluronidase, and 0.2 mg/ml kynurenic acid (all from Sigma). After 30 min at 37° C., the tissue was transferred to the standard culture medium containing 0.7 mg/ml trypsin inhibitor (Roche Diagnostics, Laval, Quebec, Canada). Tissue pieces were mechanically dissociated with micropipettes. Cells were seeded at various densities into the standard culture medium, which also contained EGF (20 ng/ml human recombinant; Peprotech, Rocky Hill, N.J.). Cells were cultured for 7 days in vitro (DIV) and formed floating cell clusters (spheres). All the mice for culture experiments were killed by cervical dislocation.

[1] = system: neural stem cells in the SVZ; experiment: Infusion into the lateral ventricle by osmotic pump; BrdU positive (proliferating) cells counted in the SVZ; assay type: in vivo, mice; details: infusion of combination of LH and prolactin or hCG and prolactin vs LH or hCG; Example 5
Procedure: To examine the number of progenitor cells in the SVZ after treatment, bromodeoxyuridine (BrdU) injections were used to label these cells. Animals received BrdU injections (120 mg/kg, i.p., dissolved in 0.007% NaOH in phosphate buffer) every 2 hours for a 10 hour period.
The sections were post-fixed with acetone for 30 seconds at room temperature and washed with PBS. For BrdU staining, the tissue was treated with 1M HCl for 22 minutes at 60° C. to denature cellular DNA. Sections were then incubated for 24 hours at room temperature in primary antibody (rat anti-BrdU, 1:50) diluted in 0.3% PBS-T containing 10% NGS, washed with PBS, and then incubated with goat-anti-rat secondary antibodies conjugated to biotin (1:200) for 1 hour at room temperature. After rinsing with ddH2O, sections were mounted with Fluorosave, because staining was visualized with CY3-Streptavodin, and viewed with a Zeiss Axiophot fluorescence microscope.
A one-in-ten series of coronal sections (14 μm) from the rostral tip of the lateral ventricle to caudal most aspect of the ventricles (total 10 sections) were collected. BrdU-positive cells were then counted in the defining ependymal-subependymal layer.
Sixteen 8-week-old CD-1 mice (Charles-River, Laval, Quebec, Canada) were anesthetized with sodium pentobarbital (120 mg/kg, i.p.) and implanted with osmotic pumps (Alzet 1007D; Alza, Palo Alto, Calif.). […]

Molecule | number of secondary spheres (neural stem cells; neural stem cells isolated from female mice) | number of secondary spheres (neural stem cells; neural stem cells isolated from male mice) | proliferation in the SVZ, prolactin added to LH or hCG [1] | self-renewal (the number of secondary spheres from primary spheres) (neural stem cells; prolactin added with LH or hCG in neural stem cell cultures, Example 5)
EGF: EGF, 20 ng/ml human recombinant; Peprotech; comparator culture condition | 172.3 and 157.6 and 197.9 | 144.4 and 225.1 and 168.2 |  | 
B1 |  |  | further enhances the effects of LH or hCG | enhanced
